Results reported in US7968716B2, “Caspase inhibitors and uses thereof” (Vertex Pharmaceuticals Incorporated, priority 2000, dated 2011).
pIC50: −log10 of the molar value. One block for each compound: values may come before it.

Legend:
[1] = molecular target: T1, recombinant, purified human Caspase-3 (Homo sapiens, UniProt P42574); assay: Caspase-3 enzyme assay, fluorogenic substrate cleavage; type: biochemical; conditions: second order rate constant of enzyme inactivation; substrate Acetyl-Asp-Glu-Val-Asp-amino-4-methylcoumarin
T1 sequence (P42574 29-175 limits assumed): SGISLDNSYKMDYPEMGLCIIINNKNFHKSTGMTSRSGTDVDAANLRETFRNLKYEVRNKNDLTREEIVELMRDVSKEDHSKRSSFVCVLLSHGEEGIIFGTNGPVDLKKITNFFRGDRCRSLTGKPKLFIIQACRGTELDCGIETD
T1 sequence (P42574 176-277 limits assumed): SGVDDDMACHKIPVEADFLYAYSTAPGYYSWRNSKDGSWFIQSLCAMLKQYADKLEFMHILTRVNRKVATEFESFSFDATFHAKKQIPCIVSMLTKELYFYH
Description: (§1) The assays for caspase inhibition are based on the cleavage of a fluorogenic substrate by recombinant, purified human Caspases -1, -3, -7 or -8. The assays are run in essentially the same way as those reported by Garcia-Calvo et al. (J. Biol. Chem. 273 (1998), 32608-32613), using a substrate specific for each enzyme. The substrate for Caspase-1 is Acetyl-Tyr-Val-Ala-Asp-amino-4-methylcoumarin. The substrate for Caspases -3, -7 and -8 is Acetyl-Asp-Glu-Val-Asp-amino-4-methylcoumarin.
(§2) The observed rate of enzyme inactivation at a particular inhibitor concentration, kobs, is computed by direct fits of the data to the equation derived by Thornberry et al. (Biochemistry 33 (1994), 3943-3939) using a nonlinear least-squares analysis computer program (PRISM 2.0; GraphPad software). To obtain the second order rate constant, kinact, kobs values are plotted against their respective inhibitor concentrations and kinact values are subsequently calculated by computerized linear regression.

[2] = molecular target: T2, recombinant, purified human Caspase-1 (Homo sapiens, UniProt P29466); assay: Caspase-1 enzyme assay, fluorogenic substrate cleavage; type: biochemical; conditions: second order rate constant of enzyme inactivation; substrate Acetyl-Tyr-Val-Ala-Asp-amino-4-methylcoumarin
T2 sequence (P29466 120-297 limits assumed): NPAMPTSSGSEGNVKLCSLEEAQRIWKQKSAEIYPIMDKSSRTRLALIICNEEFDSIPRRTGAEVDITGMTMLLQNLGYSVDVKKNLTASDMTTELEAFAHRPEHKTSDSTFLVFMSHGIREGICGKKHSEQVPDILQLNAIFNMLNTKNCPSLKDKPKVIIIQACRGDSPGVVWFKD
T2 sequence (P29466 317-404 limits assumed): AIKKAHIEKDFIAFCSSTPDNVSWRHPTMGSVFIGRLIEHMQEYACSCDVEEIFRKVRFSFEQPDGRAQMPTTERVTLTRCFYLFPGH
Description: as §1, §2

[3] = molecular target: T3, recombinant, purified human Caspase-7 (Homo sapiens, UniProt P55210); assay: Caspase-7 enzyme assay, fluorogenic substrate cleavage; type: biochemical; conditions: second order rate constant of enzyme inactivation; substrate Acetyl-Asp-Glu-Val-Asp-amino-4-methylcoumarin
T3 sequence (P55210 24-198 limits assumed): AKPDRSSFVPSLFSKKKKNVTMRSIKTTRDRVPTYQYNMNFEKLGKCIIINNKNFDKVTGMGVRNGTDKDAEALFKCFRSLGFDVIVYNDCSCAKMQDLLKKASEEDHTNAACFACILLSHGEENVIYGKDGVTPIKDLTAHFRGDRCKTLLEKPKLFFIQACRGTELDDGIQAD
T3 sequence (P55210 207-303 limits assumed): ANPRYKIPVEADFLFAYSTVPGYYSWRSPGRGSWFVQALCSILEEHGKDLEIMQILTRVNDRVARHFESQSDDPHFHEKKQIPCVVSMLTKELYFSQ
Description: as §1, §2

[4] = system: IL-1β secretion from peripheral blood mononuclear cells (PBMC); assay: Inhibition of IL-1β secretion from PBMC; type: cell-based; conditions: human PBMC, LPS 50 ng/ml, 16-18 h, mature IL-1β in supernatant
Procedure: Processing of pre-IL-1β by caspase-1 can be measured in cell culture using a variety of cell sources. Human PBMC obtained from healthy donors provides a mixed population of lymphocyte and mononuclear cells that produce a spectrum of interleukins and cytokines in response to many classes of physiological stimulators.
The test compound is dissolved in Dimethyl Sulphoxide (DMSO, Sigma #D-2650) to give a 100 mM stock solution. This is diluted in complete medium consisting of RPMI containing 10% heat inactivated FCS (Gibco BRL #10099-141), 2 mM L-Glutamine (Sigma, #G-7513), 100 U penicillin and 100 μg/ml streptomycin (Sigma #P-7539). The final concentration range of test compound is from 100 μM down to 6 nM over eight dilution steps. The highest concentration of test compound is equivalent to 0.1% DMSO in the assay.
Human PBMC are isolated from Buffy Coats obtained from the blood bank using centrifugation on Ficoll-Paque leukocyte separation medium (Amersham, #17-1440-02) and the cellular assay is performed in a sterile 96 well flat-bottomed plate (Nunc). Each well contains 100 μl of the cell suspension, 1×10^5 cells, 50 μl of compound dilutions and 50 μl of LPS (Sigma #L-3012) at 50 ng/ml final concentration. Controls consist of cells +/− LPS stimulation and a serial dilution of DMSO diluted in the same way as compound. […]

[5] = molecular target: recombinant, purified human Caspase-8 (Homo sapiens, UniProt Q14790); assay: Caspase-8 enzyme assay, fluorogenic substrate cleavage; type: biochemical; conditions: second order rate constant of enzyme inactivation; substrate Acetyl-Asp-Glu-Val-Asp-amino-4-methylcoumarin
Sequence of recombinant, purified human Caspase-8 (Q14790 217-374 limits assumed): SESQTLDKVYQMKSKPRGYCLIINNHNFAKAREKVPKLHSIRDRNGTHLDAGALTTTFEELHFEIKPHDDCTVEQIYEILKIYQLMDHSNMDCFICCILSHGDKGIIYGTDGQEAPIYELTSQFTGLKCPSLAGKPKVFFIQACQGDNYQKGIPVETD
Sequence of recombinant, purified human Caspase-8 (Q14790 385-479 limits assumed): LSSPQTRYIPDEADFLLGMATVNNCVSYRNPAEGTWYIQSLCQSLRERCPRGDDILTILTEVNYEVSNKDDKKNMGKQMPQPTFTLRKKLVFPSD
Description: as §1, §2

Jurkat E6.1 cells = assay: Anti-Fas induced apoptosis assay; type: cell-based; conditions: Homo sapiens, anti-Fas antibody CH-11 10 ng/ml, 16-18 hrs, DNA fragmentation
Description: Cellular apoptosis may be induced by the binding of Fas ligand (FasL) to its receptor, CD95 (Fas). CD95 is one of a family of related receptors, known as death receptors, which can trigger apoptosis in cells via activation of the caspase enzyme cascade. The process is initiated by the binding of the adapter molecule FADD/MORT-1 to the cytoplasmic domain of the CD-95 receptor-ligand complex. Caspase-8 then binds FADD and becomes activated, initiating a cascade of events that involve the activation of downstream caspases and subsequent cellular apoptosis. […]
Jurkat E6.1 cells are cultured in complete medium consisting of RPMI-1640 (Sigma No)+10% foetal calf serum (Gibco BRL No. 10099-141)+2 mM L-glutamine (Sigma No. G-7513). […] The cells are counted and the density adjusted to 2×10^6 cells/ml with complete medium. […]
Apoptosis of the cells is measured by the quantitation of DNA fragmentation using a ‘Cell Death Detection Assay’ from Boehringer-Mannheim, No. 1544 675. […] OD405 nm is measured 20 minutes after addition of the final substrate in a SPECTRAmax Plus plate reader (Molecular Devices). OD405 nm is plotted versus compound concentration and the IC50 values for the compounds are calculated using the curve-fitting program SOFTmax Pro (Molecular Devices) using the four parameter fit option.

Kinact, Caspase-3 Activity [1]: 160500 M⁻¹ s⁻¹
SMILES: O=C(O)CC(NC(=O)[C@@H]1CCc2nc3ccccc3c(=O)n21)C(=O)CF (stereo partly drawn) [Example 1, [3S/R(1S)]-3-(2,3-Dihydro-1H-9-oxo-pyrrolo[2,1-b]quinazolin-1-carboxamido)-5-fluoro-4-oxo-pentanoic acid]

Kinact, Caspase-1 Activity [2]: 455000 M⁻¹ s⁻¹
SMILES: O=C(O)CC(NC(=O)[C@@H]1CCCc2nc3ccccc3c(=O)n21)C(=O)CF (stereo partly drawn) [Example 2, [3S/R(9S)]-5-Fluoro-4-oxo-3-(11-oxo-6,7,8,9-tetrahydro-11H-pyrido[2,1-b]quinazolin-9-carboxamido)-pentanoic acid]

Kinact, Caspase-7 Activity [3]: 229000 M⁻¹ s⁻¹
SMILES: O=C(O)CC(NC(=O)[C@@H]1CCc2cc3ccccc3c(=O)n21)C(=O)CF (stereo partly drawn) [Example 3, [3S/R(3S)]-3-(2,3-Dihydro-1H-5-oxo-pyrrolo[1,2-b]isoquinolin-3-carboxamido)-5-fluoro-4-oxo-pentanoic acid]

SMILES: O=C(O)CC(NC(=O)[C@@H]1CCCc2cc3ccccc3c(=O)n21)C(=O)CF (stereo partly drawn) [Example 4, [3S/R(4S)]-5-Fluoro-4-oxo-3-(6-oxo-1,2,3,4-tetrahydro-6H-benzo[b]quinolizin-4-carboxamido)-pentanoic acid]
pIC50 [4]: 6.24

Caspase-8 Kinact [5]: 82000 M⁻¹ s⁻¹
SMILES: O=C(O)CC(NC(=O)[C@@H]1CCCn2c(=O)c3ccccc3c(=O)n21)C(=O)CF (stereo partly drawn) [Example 5, [3S/R(1S)]-3-(6,11-Dioxo-1,2,3,4-tetrahydro-pyridazino[1,2-b]phthalazin-1-carboxamido)-5-fluoro-4-oxo-pentanoic acid]

pIC50 (Jurkat E6.1 cells): 6.77
SMILES: O=C(O)CC(NC(=O)[C@@H]1CCCn2c(=O)c3nccnc3c(=O)n21)C(=O)CF (stereo partly drawn) [Example 6, [3S/R(5S)]-(9,10-Dioxo-5,6,7,8,9,10-hexahydro-1,4,8a,10a-tetraazaanthracene-5-carboxamido)-5-fluoro-4-oxo-3-pentanoic acid]
